Values joined by “and” are separate entries in the source; they are usually repeats but may differ in a detail not shown here. Equal entries are not always repeated.
Test: mn = molality of the nth substance listed, in mol/kg
Settings: 293 K, 100 kPa, Liquid, Alternating current cell with electrodes

CCC(=O)[O-].[NH3+]CCO [2-hydroxyethan-1-aminium propionate] + O
Settings	electrical conductivity
m1 = 0.01786	0.107 S/m
m1 = 0.022	0.116 S/m
m1 = 0.03491	0.198 S/m
m1 = 0.04447	0.218 S/m
m1 = 0.05416	0.312 S/m
m1 = 0.06841	0.338 S/m
m1 = 0.0728	0.4 S/m
m1 = 0.09126	0.43 S/m
m1 = 0.0929	0.485 S/m
m1 = 0.1121	0.574 S/m
m1 = 0.1137	0.521 S/m
m1 = 0.1322	0.658 S/m
m1 = 0.1373	0.612 S/m
m1 = 0.1504	0.74 S/m
m1 = 0.1594	0.695 S/m
m1 = 0.1692	0.821 S/m
m1 = 0.1822	0.78 S/m
m1 = 0.188	0.897 S/m
m1 = 0.2038	0.845 S/m
m1 = 0.2067	0.982 S/m
m1 = 0.2263	0.921 S/m
m1 = 0.2328	1.08 S/m
m1 = 0.2472	0.991 S/m
m1 = 0.2532	1.16 S/m
m1 = 0.268	1.06 S/m
m1 = 0.2729	1.24 S/m
m1 = 0.2877	1.12 S/m
m1 = 0.2905	1.3 S/m
m1 = 0.3074	1.18 S/m and 1.37 S/m
m1 = 0.3237	1.43 S/m
m1 = 0.3251	1.24 S/m
m1 = 0.3388	1.48 S/m
m1 = 0.3427	1.29 S/m
m1 = 0.3534	1.53 S/m
m1 = 0.3594	1.34 S/m
m1 = 0.3669	1.58 S/m
m1 = 0.3755	1.39 S/m
m1 = 0.3798	1.63 S/m
m1 = 0.3905	1.43 S/m
m1 = 0.3917	1.67 S/m
m1 = 0.4032	1.71 S/m
m1 = 0.4055	1.48 S/m
m1 = 0.4138	1.74 S/m
m1 = 0.4195	1.51 S/m
m1 = 0.424	1.78 S/m
m1 = 0.4334	1.55 S/m
m1 = 0.4465	1.59 S/m
m1 = 0.4591	1.62 S/m
m1 = 0.4709	1.65 S/m
m1 = 0.4825	1.67 S/m
m1 = 0.5351	1.82 S/m
m1 = 0.5473	1.85 S/m
m1 = 0.5594	1.89 S/m
m1 = 0.5705	1.93 S/m

CCC(=O)[O-].OCC[NH2+]CCO [bis(2-hydroxyethyl)ammonium propanoate] + O
Settings	electrical conductivity [S/m]
m1 = 0.01926	0.109
m1 = 0.01974	0.104
m1 = 0.03749	0.196
m1 = 0.0377	0.192
m1 = 0.05722	0.296
m1 = 0.05727	0.296
m1 = 0.07596	0.375
m1 = 0.0761	0.365
m1 = 0.0957	0.456
m1 = 0.09617	0.447
m1 = 0.1142	0.528
m1 = 0.1152	0.519
m1 = 0.1335	0.601
m1 = 0.135	0.596
m1 = 0.1519	0.67
m1 = 0.1542	0.668
m1 = 0.1707	0.737
m1 = 0.1718	0.725
m1 = 0.1845	0.785
m1 = 0.1898	0.798
m1 = 0.2029	0.849
m1 = 0.2071	0.875
m1 = 0.22	0.901
m1 = 0.2243	0.942
m1 = 0.2375	0.955
m1 = 0.2406	0.997
m1 = 0.2535	1
m1 = 0.2571	1.03
m1 = 0.2696	1.05
m1 = 0.2722	1.08
m1 = 0.285	1.09
m1 = 0.2875	1.12
m1 = 0.3002	1.13
m1 = 0.3019	1.17
m1 = 0.3142	1.17
m1 = 0.3162	1.16
m1 = 0.3282	1.21
m1 = 0.3293	1.23
m1 = 0.3413	1.24
m1 = 0.3424	1.27
m1 = 0.3538	1.27
m1 = 0.3545	1.31
m1 = 0.3658	1.3
m1 = 0.366	1.35
m1 = 0.3774	1.39
m1 = 0.3775	1.32
m1 = 0.3881	1.41
m1 = 0.3884	1.36
m1 = 0.3986	1.44
m1 = 0.3992	1.39
m1 = 0.4083	1.47
m1 = 0.4092	1.41
m1 = 0.418	1.5
m1 = 0.419	1.44
m1 = 0.4271	1.53
m1 = 0.4283	1.46
m1 = 0.4361	1.55
m1 = 0.4372	1.49
m1 = 0.4445	1.57
m1 = 0.4457	1.51
m1 = 0.4527	1.6
m1 = 0.4539	1.53
m1 = 0.4617	1.56
m1 = 0.4692	1.58
m1 = 0.4759	1.59

CCCC(=O)[O-].[NH3+]CCO [2-hydroxy ethylammonium butanoate] + O
Settings	electrical conductivity [S/m]
m1 = 0.01855	0.092
m1 = 0.0207	0.107
m1 = 0.03507	0.163
m1 = 0.0415	0.196
m1 = 0.05678	0.264
m1 = 0.06247	0.295
m1 = 0.07651	0.338
m1 = 0.08283	0.372
m1 = 0.09713	0.41
m1 = 0.1049	0.449
m1 = 0.119	0.485
m1 = 0.1258	0.511
m1 = 0.1407	0.563
m1 = 0.1476	0.585
m1 = 0.1628	0.637
m1 = 0.1681	0.649
m1 = 0.184	0.709
m1 = 0.1888	0.711
m1 = 0.2055	0.77
m1 = 0.2087	0.764
m1 = 0.2251	0.834
m1 = 0.2284	0.81
m1 = 0.2448	0.894
m1 = 0.2469	0.857
m1 = 0.2626	0.946
m1 = 0.2654	0.9
m1 = 0.2809	0.994
m1 = 0.2825	0.94
m1 = 0.298	1.04
m1 = 0.3001	0.982
m1 = 0.3153	1.09
m1 = 0.3165	1.02
m1 = 0.331	1.12
m1 = 0.3327	1.06
m1 = 0.3468	1.17
m1 = 0.3475	1.09
m1 = 0.3613	1.2
m1 = 0.3622	1.12
m1 = 0.3758	1.15
m1 = 0.3759	1.23
m1 = 0.3892	1.27
m1 = 0.3894	1.18
m1 = 0.4021	1.2
m1 = 0.4023	1.3
m1 = 0.4144	1.23
m1 = 0.4145	1.32
m1 = 0.4231	1.34
m1 = 0.4259	1.25
m1 = 0.4344	1.36
m1 = 0.4374	1.27
m1 = 0.4449	1.39
m1 = 0.448	1.29
m1 = 0.4554	1.41
m1 = 0.4584	1.32
m1 = 0.4651	1.43
m1 = 0.4681	1.33
m1 = 0.4746	1.45
m1 = 0.4775	1.35
m1 = 0.4835	1.46
m1 = 0.4864	1.38
m1 = 0.4922	1.48
m1 = 0.495	1.4
m1 = 0.5005	1.5
m1 = 0.5032	1.41
m1 = 0.5085	1.52
m1 = 0.516	1.54
m1 = 0.5231	1.55

From the NIST ThermoML archive (doi:10.1021/acs.jced.7b01053)
